# According to patent publication US8318186B2, “Use of at least a fatty ester for preparing a composition designed to inhibit 5-α-reductase activity, in pharmacology, in particular dermatology, in cosmetics and as food additive” (Laboratoires Expanscience, priority 2000, dated 2012):
# Where “and” joins values, the source holds several entries; their conditions need not be identical. Equal values may be shown once. Marks after values point to notes of the source that are not given here.
# Test system: 5α-reductase
# Experiment: Fatty acid esters on 5α-reductase activity, conversion of testosterone to 5α-dihydrotestosterone in normal human dermal fibroblast cultures (Example 4)
# Type: cell-based
# Parameters: key to group by 5α-reductase inhibitory activity: group A with the highest inhibitory activity; group B with an intermediate inhibitory activity
# Details: for inhibition of the 5α-reductase activity: Example 4, p<0.05; for 5α-DHT formed per culture well, mean / 5α-DHT formed per culture well, single well: after 24 of incubation, DMSO 0.1% (v/v); for 5α-DHT formed per culture well, single well: single replicate
# Protocol: The fibroblast culture medium (FCM) consisted of MEM/M199 (3:1, v/v) supplemented with penicillin (50 IU/ml), streptomycin (50 μg/ml), sodium bicarbonate (0.2%, w/v) and FCS (10%, v/v).
# The assay system consisted of normal human dermal fibroblasts cultured as a monolayer. The fibroblasts were isolated from a residue from abdominal plastic surgery performed on a person (subject BIOPREDIC No. I0013). The cells were used at the fifth passage; they were cultured until the monolayers were confluent in FCM medium at 37° C. in a humid atmosphere containing 5% CO2.
# The fibroblast incubation medium (FIM) consisted of FCM supplemented with tritiated testosterone (1.6×10^−7 M, that is 6.32 μCi/ml) and nonradiolabeled testosterone (3.84×10^−6 M)
# The test products and finasteride were taken up in DMSO before being diluted in the incubation medium. […]
# The fibroblast cultures were preincubated in the presence of the test products or of the reference product for 2 hours before adding the substrate, testosterone. For this step, the test products and the reference product were prepared in the FCM medium.
# After preincubation, the fibroblast cultures were incubated in the presence of the test products or of the reference product prepared in the FIM medium for 22 hours at 37° C. in a humid atmosphere containing 5% CO2. Control cultures were incubated in the FIM medium in the absence of test products and of reference product. […]
# Each experimental condition was tested in triplicate.
# After the incubation period, the cells were subjected to the action of ultrasound in the FIM medium. The cellular lysates thus obtained were extracted with dichloromethane. After evaporation, the dry residues were taken up in methanol and were deposited on 60F254 silica plates (MERCK, reference 5554).
# The migration solvent was a mixture of dichloromethane and ether (7:3, v/v) At the end of the migration, the silica plates were read using a BERTHOLD radioactivity scanner.
# The metabolizing of testosterone to 5α-dihydro-testosterone under the various experimental conditions was calculated: the results (areas of the 5α-dihydrotestosterone peaks counted by the BERTHOLD scanner) were expressed in pmol of 5α-dihydro-testosterone formed per culture well. They were also expressed as a percentage of the 5α-reductase activity present in the “DMSO control” group.
# The groups of data (control group and treated groups) were treated by a one-way analysis of variance (ANOVA 1, p<0.05), followed by a DUNNETT's test (p<0.05). The effect of the test products and of the reference product was compared with the “DMSO control” group. The effects of the test products were compared to each other by a two-way analysis of variance (ANOVA 2, p<0.05, factor 1=concentration and factor 2=treatment).
# The same materials and methods are used as in example 3 above.
# It was proposed to evaluate the effect of fatty acid esters on the 5α-reductase activity. An in vitro model of normal human dermal fibroblast cultures was selected. The products tested were chosen from the group of fatty acid esters varying in the length and the functionality of the fatty chain, and the nature of the alkoxy group. These esters are the following: methyl oleate, methyl linoleate, methyl stearate, methyl laurate, methyl undecylenate, butyl oleate, oleyl oleate and methyl ricinoleate.
compound,measurement,setting,value
"CCCCCCCC/C=C\CCCCCCCC(=O)OC [Methyl oleate, methyl oleate]",5α-reductase activity as percentage of the “DMSO 0.1% (v/v)” group,1 μg/ml,71 percentage of the “DMSO 0.1% (v/v)” group
same,inhibition of the 5α-reductase activity,1 μg/ml,29%
same,"5α-DHT formed per culture well, mean",1 μg/ml,8.12* +/− pmol of 5α-DHT formed/culture well
same,"5α-DHT formed per culture well, single well",1 μg/ml,8.24 pmol of 5α-DHT formed/culture well and 8.28 pmol of 5α-DHT formed/culture well and 7.84 pmol of 5α-DHT formed/culture well
same,5α-reductase activity as percentage of the “DMSO 0.1% (v/v)” group,10 μg/ml,58 percentage of the “DMSO 0.1% (v/v)” group
same,inhibition of the 5α-reductase activity,10 μg/ml,42%
same,"5α-DHT formed per culture well, mean",10 μg/ml,6.61* +/− pmol of 5α-DHT formed/culture well
same,"5α-DHT formed per culture well, single well",10 μg/ml,6.28 pmol of 5α-DHT formed/culture well and 6.44 pmol of 5α-DHT formed/culture well and 7.12 pmol of 5α-DHT formed/culture well
same,5α-reductase activity as percentage of the “DMSO 0.1% (v/v)” group,100 μg/ml,64 percentage of the “DMSO 0.1% (v/v)” group
same,inhibition of the 5α-reductase activity,100 μg/ml,26%
same,"5α-DHT formed per culture well, mean",100 μg/ml,7.24* +/− pmol of 5α-DHT formed/culture well
same,"5α-DHT formed per culture well, single well",100 μg/ml,7.52 pmol of 5α-DHT formed/culture well and 7.00 pmol of 5α-DHT formed/culture well and 7.20 pmol of 5α-DHT formed/culture well
same,group by 5α-reductase inhibitory activity,"tested at 1, 10 and 100 μg/ml",A
